From a melting point compilation (Tetko et al.; mined from patent text by program, amines drawn as free bases though some values may be those of a salt) come the findings set out here.

The melting point is the temperature, or range, at which the solid turns liquid.

As to `COc1ccc([C@@H]2Sc3cc(Cl)ccc3N(CCCCl)C(=O)[C@@H]2O)cc1` (relative stereo), the melting point was 103 to 106 °C. `COc1ccc(C(N)=S)c(OC)c1` displayed a melting point of 115 to 118 °C. As to `CCS1(N2CCN(c3ccccc3OC)CC2)C(C)=C(C)c2c1[nH]c(=O)[nH]c2=O` (stereo not drawn), the melting point was in the range of 196 to 197 °C. The value for `OC1C2C=CC1C1N=NC21` (stereo not drawn) was 128 °C. The value for `CC(C)(C)c1cccc(S(=O)(=O)n2c(CCCCC(=O)O)cc3cc(C(F)(F)F)ccc32)c1` was 135 °C; that for `CN(C)c1ccc(N=Nc2ccccc2C(=O)NCCNC(=O)CI)cc1` was 140 to 142 °C. The result for `CC(=O)Oc1ccc(-c2cnc(-c3ccccc3)[nH]c2=O)cc1OC(C)=O` reads 240 °C; that for `COc1ccc2c(c1)CCC1C2C(O)CC2(C)C1CC1OCCOC12` (stereo not drawn), 125 to 126 °C; that for `CN(C)c1nc2cc(NC(=O)c3c(C(=O)N4CCOCC4)cnn3C)ccn2n1`, 196 to 198 °C. As for `CC(C)Cc1nc2c(N)nc3c(c2n1CC(C)C)CCCC3`, the melting point lay in the range of 160 to 161 °C. In turn, `COC(=O)c1cccc(S(=O)(=O)N(C)C)c1CS(N)(=O)=O` displayed a melting point of 133 to 142 °C. Compound `COc1ccc(C(=O)Nc2ccccc2)cc1NS(=O)(=O)c1ccc(C#N)cc1` returned a melting point of 206 to 208 °C. The result for `COc1ccc(N2C(=O)C(O)C2c2ccccc2Cl)cc1` (stereo not drawn) reads 178 to 180 °C. The result for `OC(c1ccccc1)(c1ccc(F)cc1)C1CCNCC1` (stereo not drawn) reads 144 to 146 °C; that for `CC(=CN(C)C)C(=O)c1cccc(Cl)c1`, 206 to 208 °C; that for `Cc1ccc(CN2CCN(C3=NC4(C=CC(=O)C=C4)C(c4ccc(O)cc4)=C3)CC2)cc1`, 140 °C.

In turn, `COC(=O)CCN1CCC(NC(=O)OC(C)(C)C)CC1` came in with a melting point of 91 to 93 °C. The value for `CCCCCCc1ccc2c(c1)c1cc(CCCCCC)ccc1n2CCN` was 56 °C; that for `Nc1ncnc2c1c(-c1ccc(Oc3ccccc3)cc1)cn2C1CCC(=O)CC1` was 252 to 254 °C. The result for `CC(=O)NCC1CN(c2ccc(N3CCN(C(=O)COC(=O)CO)CC3)c(F)c2)C(=O)O1` (stereo not drawn) reads 105 to 107 °C; that for `CN(C)C(=O)c1cc(-c2nccs2)[nH]c1C(CC1CCOCC1)c1ccc(S(=O)(=O)C2CC2)cc1` (stereo not drawn), 180 to 182 °C; that for `FCCOc1cccc(CBr)c1OCCF`, 99 to 100 °C. The value for `O=C(Nc1ccc2[nH]c(=O)sc2c1)C(=O)N1CCC(Cc2ccc(F)cc2)CC1` was 224 to 226 °C; that for `CC1(C)OCCC(=O)c2ccccc2NC1=O` was 146 to 148 °C. Compound `c1ccc(N=C(N=C(Nc2ccccc2)c2ccccc2)N2CCCC2)cc1` displayed a melting point of 246 to 247 °C. The value for `Nc1cnc(Br)c(N)n1` was 176 to 178 °C. The value for `CCCCCCCCCC(=O)Nc1ccc(S(=O)(=O)Nc2nnc(C)s2)cc1` was 141 to 142 °C; that for `CCCC(=O)C(=CNc1cccc(COC(=O)c2ccccc2)c1)C(=O)OCC` was 59 to 63 °C. The result for `S=C(NC1CCCCC1)N1CCc2[nH]cnc2C1` reads 183 °C; that for `Cc1nc(N2CCN(CC(C)C)C2=O)sc1C(=O)NCc1ccncc1`, 185 to 187 °C; that for `O=C(N[C@H]1CC[C@H](CCN2CCC(c3cccc4c3CCO4)CC2)CC1)c1ccccc1`, 220 °C. In turn, `COc1cc(CNC(=O)c2nc3scc(COc4ccc(C(=O)O)cc4)c3c(=O)[nH]2)ccc1F` had a melting point of 276 to 281 °C. The value for `O=C(O)c1cccc(C2Oc3ccccc3C(O)=C2Cc2ccccc2)c1` (stereo not drawn) was 210 to 212 °C; that for `CCCc1c(C(C)=O)c2ccc(C(N)=O)cc2n1Cc1ccccc1Cl` was 208 to 211 °C; that for `O=C(Nc1cccnc1S(=O)(=O)c1ccc(Cl)cc1)N[C@@H](Cc1ccc(NC(=O)c2c(Cl)cccc2Cl)cc1)C(=O)O` was 181 °C.

In turn, `Cc1nc(O)nc(C)c1N1CCCn2c1nc1c(Cl)ccc(C(OC(F)F)C(F)(F)F)c12` (stereo not drawn) showed a melting point of 208 to 210 °C. Consider `CC(C)(C)OC(=O)Nc1ccn2nc(N3CCCC3)nc2c1`, for which the melting point lay in the range of 216 to 219 °C. The result for `Cc1ccc(-c2coc3c(C)c(O)ccc3c2=O)cc1` reads 264 to 267 °C. The result for `CC(=O)Nc1cccc(C(=O)N2CCN(CCc3ccc(Cl)cc3)CC2)c1` reads 101 to 107 °C; that for `Cc1ccc(S(=O)(=O)NCCc2cccc(OCC(=O)NCc3ccccc3)c2)cc1`, 118 to 120 °C; that for `CNS(=O)(=O)c1ccc(-c2ccc3oc(C4CCN(C(=O)OC(C)C)CC4)nc3c2)cc1`, 179 to 181 °C. For `CC1(C)C2C=CC3(C)C(C2)C(=O)CCC13O[Si](C)(C)C` (stereo not drawn), the melting point was in the range of 73 to 76 °C. The result for `CSc1ccc(C[C@H](CO)NC(=O)OCc2ccccc2)cc1` reads 115 to 117 °C; that for `COc1cc(C)c(Cl)cn1`, 32 to 33 °C.

Consider `CC(C)(C)c1nc2cc(CC#N)ccc2s1`, for which the melting point is 50 to 52 °C. The value for `CN(C)S(=O)(=O)c1cc(C(=O)Cl)ccc1Cl` was 103 to 105 °C. Compound `CN1C(=O)CCn2nc(-c3ccc(F)cc3)c(-c3ccncc3)c21` gave a melting point of 185 to 186 °C. In turn, `CC(C)(C)C(=O)c1ccc(C(Br)Br)cc1` gave a melting point of 65 to 68 °C. The result for `CCCCc1c(C(=O)c2ccc(O)cc2)sc2ccc([N+](=O)[O-])cc12` reads 182 °C; that for `CCOC(=O)C(C)(Cc1cccc(OCCN2CCCCC2)c1)S(=O)(=O)c1ccc(OC)cc1` (stereo not drawn), 112 °C; that for `CCCCn1c(=O)c2c(ncn2S(=O)(=O)CCCC)n(CCCC)c1=O`, 55 to 57 °C. The value for `CN(C)CCNc1ccc(NC(=O)Nc2ccc(Oc3ccccc3)cc2)cc1[N+](=O)[O-]` was 178 to 180 °C; that for `CC(C)(CCCc1cccc2cncn12)CC(=O)O` was 124 to 129 °C; that for `Nc1ccc(CCc2nc3ccccc3s2)cc1` was 79 to 81 °C. The value for `C=C(CS(=O)CCCC)c1ccccc1` (stereo not drawn) was 42 to 43.5 °C; that for `CC(=O)Oc1cccc2c1C(=O)C(CN1CCC(O)(c3ccccc3)CC1)CC2` (stereo not drawn) was 170 to 172 °C.

In the case of `O=[N+]([O-])c1ccc(-c2cnc(Nc3ccc(Oc4ccccc4)cc3)s2)cc1`, the melting point lay in the range of 191 to 196 °C.

Take `COc1ccc(-n2nccc2-c2nn(-c3cccc(C(F)(F)F)c3)ccc2=O)cc1`: the melting point lay in the range of 173 to 174 °C. For `CC(C)OCCNC(=O)c1ccn2nc(-c3ccccc3)c(-c3ccc(=O)n(C(C)C)n3)c2c1`, the melting point lay within 124 to 125 °C. The value for `CCn1cc(C(=O)O)c(=O)c2cc(F)c(-c3ccnc(CN)n3)c(F)c21` was 285 to 289 °C. The result for `CC(C)(C)C1NCc2ccccc2C1c1ccccc1` (stereo not drawn) reads 79 to 81 °C; that for `COc1c(C2CCN(CCCCNC(=O)c3ccc(-c4ccc(NS(=O)(=O)CC(F)(F)F)cc4)cc3)CC2)ccc2c1CCCC2`, 182 to 184 °C. The value for `CC(C(O)C(C)(C)Cc1ccc(OC(F)(F)F)cc1)n1ncnc1S` (stereo not drawn) was 125 to 126 °C.
